How the values were obtained:
[1] = Distribution coefficient, log D of the compound; type: physicochemical; conditions: octanol/water
[2] = Half life in rat at 1 mg/kg, iv; type: ADME, organism-based; set-up: dose 1 mg/kg, route intravenous; conditions: in vivo
[3] = Cmax in rat at 3 mg/kg, po; type: ADME, organism-based; set-up: dose 3 mg/kg, route oral; conditions: in vivo
[4] = Tmax in rat at 3 mg/kg, po; type: ADME, organism-based; set-up: dose 3 mg/kg, route oral; conditions: in vivo
[5] = Half life in rat at 3 mg/kg, po; type: ADME, organism-based; set-up: dose 3 mg/kg, route oral; conditions: in vivo
[6] = AUC in rat at 1 mg/kg, iv; type: ADME, organism-based; set-up: dose 1 mg/kg, route intravenous; conditions: plasma
[7] = Intrinsic clearance in human liver microsome measured per mg of protein; type: ADME; conditions: liver microsomes
[8] = Volume of distribution at steady state in rat at 1 mg/kg, iv; type: ADME, organism-based; set-up: dose 1 mg/kg, route intravenous; conditions: in vivo, read-out: Vdss
[9] = Intrinsic clearance in rat liver microsome measured per mg of protein; type: ADME; conditions: liver microsomes
[10] = Clearance in rat at 1 mg/kg, iv; type: ADME, organism-based; set-up: dose 1 mg/kg, route intravenous; conditions: in vivo
[11] = AUC in rat at 3 mg/kg, po; type: ADME, organism-based; set-up: dose 3 mg/kg, route oral; conditions: plasma
[12] = Oral bioavailability in rat at 3 mg/kg; type: ADME, organism-based; conditions: in vivo

| SMILES | logD [1] | half-life [2] [h] | Cmax [3] [ng/mL] | Tmax [4] [h] | half-life [5] [h] | AUC [6] [ng·h/mL] | microsomal CLint [7] [µL/min/mg] | Vd [8] [L/kg] | microsomal CLint [9] [µL/min/mg] | clearance [10] [mL/min/kg] | AUC [11] [ng·h/mL] | bioavailability [12] [%] |
| --- | --- | --- | --- | --- | --- | --- | --- | --- | --- | --- | --- | --- |
| CC[C@H](NC(=O)[C@H]1NCC[C@@H]1O)c1ccc(-c2noc(CCC3CCCCC3)n2)cc1 | 4.3 | 1.64 | 37.5 | 0.75 | 1.64 | 204 | 10 | 7.86 | 38.8 | 81.8 | 94.8 | 15.3 |
| C[C@H](NC(=O)[C@H]1NCC[C@@H]1O)c1ccc(-c2noc(CCC3CCCC3)n2)cc1 | 2.9 | 4.3 | 82.5 | 0.33 | 7.55 | 439 | 12 | 5.55 | 49.5 | 37.1 | 232 | 17.6 |
| C[C@H](NC(=O)[C@H]1NCC[C@@H]1O)c1ccc(-c2noc(CCC3CCCCC3)n2)cc1 | 3.6 |  |  |  |  |  | < 4.5 |  | 50.2 |  |  |  |
| CCCCCCCc1nc(-c2ccc(CNC(=O)[C@H]3NCC[C@@H]3O)cc2)no1 | 3.7 |  |  |  |  |  | 45 |  | 60 |  |  |  |

Source: ChEMBL document CHEMBL1208743, “Discovery of novel sphingosine kinase-1 inhibitors. Part 2” (Bioorg Med Chem Lett, 2010)
